Results from paper PMC4700476, “Differential regulation by AMP and ADP of AMPK complexes containing different γ subunit isoforms” (Biochemical Journal, 2016).
Values joined by “and” are separate entries in the source; they are usually repeats but may differ in a detail not shown here. Equal values may be shown once.

Experiments:
[1] = biological target: T1, AMPK γ1 complex (FLAG-tagged human γ1) (Homo sapiens, UniProt P54619+Q13131); test: Protection against inactivation and Thr172 dephosphorylation by PP2Cα; format: biochemical; conditions: 5 mM ATP, read-out: half-maximal effect for protection against inactivation by PP2Cα
T1 construct: would have predominantly been the α1β2γ1, α1β2γ2 or α1β2γ3 complexes; expressed in transfected cells; host or cells: HEK-293 (Flp recombinase target site, tetracycline-inducible); anti-FLAG immunoprecipitate
Experimental: (§1) AMPK was activated by incubating the cells in phenformin (10 mM) for 60 min prior to cell lysis. Cell lysates (225, 225 and 455 μg of lysate protein for γ1, γ2 and γ3 respectively) were incubated with 100 μl of EZview Red anti-FLAG M2 affinity gel beads at 4°C for 2 h on a roller mixer. The beads were washed twice with 1 ml of immunoprecipitation buffer and twice with 1 ml of Hepes assay buffer, resuspended in 1 ml of assay buffer and divided into 100-μl aliquots. The beads were recovered by centrifugation and 75 μl of the supernatant removed. In a final volume of 50 μl, AMP, ADP (as specified), ATP (5 mM) and PP2Cα (1.5 μg) were added and the reaction was started by adding MgCl2 (9.8 mM) to activate PP2Cα; the reactions were then conducted in a shaking incubator at 30°C for 10 min. They were stopped by washing the beads three times in assay buffer, resuspending them in 400 μl of assay buffer and dividing them into aliquots for kinase assays and analysis by Western blotting.
(§2) Finally, we addressed the effects of AMP and ADP on the dephosphorylation of γ1, γ2 and γ3 complexes by the protein phosphatase PP2Cα. Cells expressing γ1, γ2 or γ3 complexes were treated with phenformin to promote Thr^172 phosphorylation, the complexes were then isolated by immunoprecipitation and equal amounts (based on anti-FLAG blots) were treated with a limiting quantity of PP2Cα in the presence of increasing concentrations of AMP or ADP. As before, in order to simulate physiological conditions, these assays were performed in the presence of 5 mM ATP. […] The similar effects of AMP on all three complexes were confirmed by Western blot analysis using anti-pThr^172 antibodies (lower panel). The effects of ADP are shown in Figure 7(B); similar to results previously obtained with rat liver AMPK [28]
(§3) Figure 7 Effect of AMP and ADP on protection against Thr^172 dephosphorylation, measured at 5 mM ATP (A) […], -γ2 or -γ3 complexes were immunoprecipitated from cells treated with phenformin to cause maximal Thr^172 phosphorylation. The IPs were then incubated for 10 min with the protein phosphatase PP2Cα in the presence of 5 mM ATP and various concentrations of AMP. Inactivation was assessed by kinase assays (top panel) and Thr^172 dephosphorylation by Western blot (bottom panels). Results (means ± S.E.M., n=2) in the top panel are shown as percentage protection, which is the inactivation compared with control (without AMP), expressed as a percentage of the inactivation compared with control at the highest concentration of AMP used. Results were fitted to the equation Y=100 × X/(EC50+X) where Y is the percentage protection, X is the concentration of AMP, and EC50 is the concentration of AMP causing half-maximal protection. The continuous lines are the curves generated using this equation using the best-fit parameters quoted in the text. […] (B) As (A), but varying ADP in place of AMP.

[2] = biological target: T2, AMPK γ3 complex (FLAG-tagged human γ3) (Homo sapiens, UniProt Q13131+Q9UGI9); test: as above; format: biochemical; conditions: 5 mM ATP, read-out: half-maximal effect for protection against inactivation by PP2Cα
T2 construct: would have predominantly been the α1β2γ1, α1β2γ2 or α1β2γ3 complexes; expressed in transfected cells; host or cells: HEK-293 (Flp recombinase target site, tetracycline-inducible); anti-FLAG immunoprecipitate
Experimental: as §1, §2, §3

[3] = biological target: T3, AMPK γ2 complex (FLAG-tagged human γ2) (Homo sapiens, UniProt Q13131+Q9UGJ0); test: as above; format: biochemical; conditions: 5 mM ATP, read-out: half-maximal effect for protection against inactivation by PP2Cα
T3 construct: would have predominantly been the α1β2γ1, α1β2γ2 or α1β2γ3 complexes; expressed in transfected cells; host or cells: HEK-293 (Flp recombinase target site, tetracycline-inducible); anti-FLAG immunoprecipitate
Experimental: as §1, §2, §3

[4] = biological target: T4, AMPK γ1 complex (dephosphorylated, FLAG-tagged human γ1) (Homo sapiens, UniProt P54619+Q13131); test: Promotion of LKB1-dependent activation and Thr172 phosphorylation; format: biochemical; conditions: 5 mM ATP
T4 construct: would have predominantly been the α1β2γ1, α1β2γ2 or α1β2γ3 complexes; expressed in transfected cells; host or cells: HEK-293 (Flp recombinase target site, tetracycline-inducible); anti-FLAG immunoprecipitate
Experimental: (§4) Cell lysates (140, 500 and 2000 μg of lysate protein for γ1, γ2 and γ3 respectively) were incubated with 100 μl of EZview Red anti-FLAG M2 affinity gel, immunoprecipitated and washed as described previously. The IPs were resuspended in 100 μl of Hepes assay buffer and incubated in an orbital incubator with PP1γ (55 μg in 10 μl) in Hepes assay buffer for 30 min at 30°C. The dephosphorylation reactions were stopped by washing the IPs three times in Hepes assay buffer. The precipitates were then resuspended in 1 ml of Hepes assay buffer and divided into 100-μl aliquots. After centrifugation, 75 μl of each supernatant was removed, 5 μl of okadaic acid (final concentration 25 μM) was added and incubation continued for 5 min at 30°C. After this, AMP or ADP and LKB1 were added as specified and the reaction started by adding a mixture of MgCl2 (final concentration 9.8 mM) and ATP (final concentration 5 mM). Incubation was for 10 min at 30°C, after which the reactions were stopped by washing the IPs three times in Hepes assay buffer. They were resuspended in 400 μl of assay buffer and split for assays and analysis by Western blotting.
(§5) We next tested whether AMP promoted Thr^172 phosphorylation by LKB1, using complexes containing γ1, γ2 or γ3 expressed in HEK-293 cells and isolated using anti-FLAG antibody. The IPs were treated with the protein phosphatase-1 catalytic subunit (PP1γ) to remove phosphate from Thr^172, were washed to remove PP1γ, and okadaic acid was added to block the activity of any residual phosphatase. They were then treated with limiting quantities of LKB1 in the presence of 5 mM ATP (to mimic physiological conditions), with or without 1 mM AMP.
(§6) Figure 5 Effect of AMP on activation and Thr^172 phosphorylation of AMPK-γ isoforms induced by upstream kinases (A) Effect of a limiting quantity of LKB1, with or without AMP (1 mM), on AMPK activity. Anti-FLAG IPs from AMPK-γ1-, -γ2- or -γ3-expressing cells were treated with PP1γ to bring about complete dephosphorylation of Thr^172. PP1γ was removed by washing and okadaic acid was added to ensure complete inhibition of any residual phosphatase. The IPs were then incubated for 10 min with 5 mM ATP with or without LKB1 (1 μg) and with or without 1 mM AMP. […] (B) Effect of different concentrations of AMP on activation and Thr^172 phosphorylation of the AMPK-γ1 complex. Experiment as in (A) except using various concentrations of AMP in the presence of 5 mM ATP. Results in the upper panel (means ± S.E.M., n=6) are expressed relative to the control without AMP. Results were fitted to the equation: Y=1+[(activation–1) × X]/(EC50+X), where Y is the relative activity, X is the concentration of AMP, activation is the predicted maximal activation, and EC50 is the concentration of AMP causing half-maximal activation. The continuous line is the curve generated using this equation with the parameters quoted in the text. […] (C) As (A), except that we also tested the effects of 1 mM AMP on activation by CaMKKβ as well as LKB1. The amount of CaMKKβ added (0.34 μg) yielded a similar limited degree of activation to LKB1.
(§7) Figure 6 Effect of ADP on activation and Thr^172 phosphorylation of AMPK-γ isoforms induced by upstream kinases (A) Effect of AMP or ADP on activation of γ1-, γ2- or γ3-containing AMPK complexes induced by LKB1 in the presence of 5 mM ATP. Dephosphorylated AMPK complexes were generated as in Figure 3(A) and were incubated for 10 min with LKB1 with or without AMP (300 μM), ADP (1 mM) or the 5′-nucleotidase CD73 (0.86 μg). […] (B) Duplicate blots from the experiment shown in (A). (C) Effect of ADP on activation of AMPK-γ1 complexes by LKB1 in the presence of 5 mM ATP. The experiment was performed as in (A) except with various concentrations of ADP. Results (means ± S.E.M., n=3) are expressed relative to the basal activity in the absence of ADP and were fitted to the equation used for Figure 3(B). […]

[5] = system: AMPK γ1 complex (dephosphorylated, FLAG-tagged human γ1); test: as above; format: biochemical; conditions: 5 mM ATP, imprecise estimate, read-out: IC50 for the inhibitory effect on activation by LKB1
Experimental: as §4, §5, §6, §7

[6] = biological target: T5, AMPK γ2 complex (dephosphorylated, FLAG-tagged human γ2) (Homo sapiens, UniProt Q13131+Q9UGJ0); test: as above; format: biochemical; conditions: ADP 1 mM, 5 mM ATP
T5 construct: would have predominantly been the α1β2γ1, α1β2γ2 or α1β2γ3 complexes; expressed in transfected cells; host or cells: HEK-293 (Flp recombinase target site, tetracycline-inducible); anti-FLAG immunoprecipitate
Experimental: as §4, §5, §6, §7

[7] = biological target: T6, AMPK γ3 complex (dephosphorylated, FLAG-tagged human γ3) (Homo sapiens, UniProt Q13131+Q9UGI9); test: as above; format: biochemical; conditions: ADP 1 mM, 5 mM ATP
T6 construct: would have predominantly been the α1β2γ1, α1β2γ2 or α1β2γ3 complexes; expressed in transfected cells; host or cells: HEK-293 (Flp recombinase target site, tetracycline-inducible); anti-FLAG immunoprecipitate
Experimental: as §4, §5, §6, §7

[8] = system: γ3-containing AMPK complexes in mouse skeletal muscle; parameters: method as in PMID 25695398; conditions: cited from earlier work
[9] = system: γ1-containing AMPK complexes in mouse skeletal muscle; parameters: method as in PMID 25695398; conditions: cited from earlier work
[10] = system: γ2-containing AMPK complexes in HEK-293 cells expressing FLAG–γ2; parameters: method as in PMID 25695398; conditions: anti-FLAG IP; cited from earlier work
glucose uptake = system: glucose uptake; parameters: method as in PMID 25695398; conditions: mouse skeletal muscle; cited from earlier work
[11] = system: γ1-containing AMPK complexes in HEK-293 cells expressing FLAG–γ1; parameters: method as in PMID 25695398; conditions: anti-FLAG IP; cited from earlier work
[12] = system: γ3-containing AMPK complexes in HEK-293 cells expressing FLAG–γ3; parameters: method as in PMID 25695398; conditions: anti-FLAG IP; cited from earlier work

T4 sequence (P54619 whole entry): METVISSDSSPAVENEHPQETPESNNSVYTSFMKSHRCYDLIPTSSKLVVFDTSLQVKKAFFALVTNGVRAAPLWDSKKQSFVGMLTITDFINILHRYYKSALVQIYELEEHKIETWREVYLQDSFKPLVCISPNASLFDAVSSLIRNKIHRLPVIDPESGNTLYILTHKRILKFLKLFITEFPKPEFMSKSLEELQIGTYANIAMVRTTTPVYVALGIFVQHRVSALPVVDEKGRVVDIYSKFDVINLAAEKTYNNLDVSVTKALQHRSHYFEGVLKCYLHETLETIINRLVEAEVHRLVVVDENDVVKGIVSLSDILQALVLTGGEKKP
T4 sequence (Q13131 whole entry): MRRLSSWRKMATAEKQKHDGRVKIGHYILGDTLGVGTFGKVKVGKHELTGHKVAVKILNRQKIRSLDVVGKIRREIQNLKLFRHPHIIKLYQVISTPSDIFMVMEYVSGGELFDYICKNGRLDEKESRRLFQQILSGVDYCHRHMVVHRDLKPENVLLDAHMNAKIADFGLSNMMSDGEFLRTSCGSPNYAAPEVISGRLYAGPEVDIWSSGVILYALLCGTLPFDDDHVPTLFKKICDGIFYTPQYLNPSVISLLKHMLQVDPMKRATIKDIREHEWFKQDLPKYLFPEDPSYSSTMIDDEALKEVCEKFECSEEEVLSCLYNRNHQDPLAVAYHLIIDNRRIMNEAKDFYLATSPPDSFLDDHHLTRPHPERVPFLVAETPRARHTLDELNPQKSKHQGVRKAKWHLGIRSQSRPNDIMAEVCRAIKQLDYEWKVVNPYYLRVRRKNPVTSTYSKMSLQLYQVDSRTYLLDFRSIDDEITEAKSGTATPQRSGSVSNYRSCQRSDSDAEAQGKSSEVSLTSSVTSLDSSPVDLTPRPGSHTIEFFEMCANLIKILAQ
T4 sequence (O43741 whole entry partner): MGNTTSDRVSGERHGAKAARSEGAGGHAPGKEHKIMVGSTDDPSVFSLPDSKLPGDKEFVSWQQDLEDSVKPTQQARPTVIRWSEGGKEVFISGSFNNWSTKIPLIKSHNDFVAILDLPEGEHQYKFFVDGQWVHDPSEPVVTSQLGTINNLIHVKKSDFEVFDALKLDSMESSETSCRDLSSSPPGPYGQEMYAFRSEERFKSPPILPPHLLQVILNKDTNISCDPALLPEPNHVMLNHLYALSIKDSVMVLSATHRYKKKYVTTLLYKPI
T2 sequence (Q9UGI9 whole entry): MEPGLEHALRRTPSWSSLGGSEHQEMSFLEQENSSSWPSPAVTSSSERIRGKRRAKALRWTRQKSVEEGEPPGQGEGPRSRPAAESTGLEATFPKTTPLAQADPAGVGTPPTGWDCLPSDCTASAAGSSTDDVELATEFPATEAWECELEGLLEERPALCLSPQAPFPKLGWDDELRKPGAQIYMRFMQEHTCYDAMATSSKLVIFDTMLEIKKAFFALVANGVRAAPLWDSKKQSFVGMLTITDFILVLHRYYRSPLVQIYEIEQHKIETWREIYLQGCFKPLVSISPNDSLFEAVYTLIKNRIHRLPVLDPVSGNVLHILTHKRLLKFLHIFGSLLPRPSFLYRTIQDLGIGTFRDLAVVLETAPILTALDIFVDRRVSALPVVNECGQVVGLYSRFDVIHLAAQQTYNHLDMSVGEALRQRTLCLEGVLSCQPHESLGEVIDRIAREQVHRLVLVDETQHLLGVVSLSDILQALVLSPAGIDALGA
T2 sequence (Q13131 whole entry): as the sequence (Q13131 whole entry) above
T2 sequence (O43741 whole entry partner): as the sequence (O43741 whole entry partner) above
T6 sequence (Q9UGI9 whole entry): as the sequence (Q9UGI9 whole entry) above
T6 sequence (Q13131 whole entry): as the sequence (Q13131 whole entry) above
T6 sequence (O43741 whole entry partner): as the sequence (O43741 whole entry partner) above
T5 sequence (Q9UGJ0 whole entry): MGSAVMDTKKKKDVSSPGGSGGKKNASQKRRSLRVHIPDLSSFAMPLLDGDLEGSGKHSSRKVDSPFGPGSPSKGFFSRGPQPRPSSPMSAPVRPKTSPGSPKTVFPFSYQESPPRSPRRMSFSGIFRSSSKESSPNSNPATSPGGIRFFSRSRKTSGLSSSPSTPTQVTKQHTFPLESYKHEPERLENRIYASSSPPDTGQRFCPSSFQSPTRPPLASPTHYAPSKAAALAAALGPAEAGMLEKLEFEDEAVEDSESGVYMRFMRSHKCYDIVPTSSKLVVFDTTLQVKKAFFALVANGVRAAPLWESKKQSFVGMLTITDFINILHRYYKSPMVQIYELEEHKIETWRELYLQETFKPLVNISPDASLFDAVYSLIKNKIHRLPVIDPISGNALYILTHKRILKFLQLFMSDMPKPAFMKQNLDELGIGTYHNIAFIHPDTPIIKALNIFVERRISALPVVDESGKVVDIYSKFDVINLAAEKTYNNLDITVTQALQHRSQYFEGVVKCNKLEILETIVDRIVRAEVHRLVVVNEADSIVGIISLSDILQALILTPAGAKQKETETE
T5 sequence (Q13131 whole entry): as the sequence (Q13131 whole entry) above
T5 sequence (O43741 whole entry partner): as the sequence (O43741 whole entry partner) above
T3 sequence (Q9UGJ0 whole entry): as the sequence (Q9UGJ0 whole entry) above
T3 sequence (Q13131 whole entry): as the sequence (Q13131 whole entry) above
T3 sequence (O43741 whole entry partner): as the sequence (O43741 whole entry partner) above
T1 sequence (P54619 whole entry): as the sequence (P54619 whole entry) above
T1 sequence (Q13131 whole entry): as the sequence (Q13131 whole entry) above
T1 sequence (O43741 whole entry partner): as the sequence (O43741 whole entry partner) above

EC50 [1] [µM] | EC50 [2] [µM] | EC50 [3] [µM] | EC50 ([4]; imprecise estimate, read-out: EC50 for the activating effect on activation by LKB1) | stimulation of activation caused by Thr172 phosphorylation by LKB1 ([4]; ADP) [fold] | activation (best-fit, promotion of activation by LKB1) ([4]; various ADP, constrained to be 5-fold or less, confidence limits extremely wide) [fold] | IC50 [5] [µM] | effect on activation by LKB1 [6] | effect on activation by LKB1 [7] | Compound | activation of γ3-containing complexes [8] | activation of γ1-containing complexes [9] | activation of complex in HEK-293 cells [10] | glucose uptake (glucose uptake) | activation of complex in HEK-293 cells [11] | activation of complex in HEK-293 cells [12]
910 ± 70 | 980 ± 150 | 180 ± 20 | 1800 µM and ≥ 1000 µM | ~2 | 5 | 6800 ± 3100 | not significant | not significant | Nc1ncnc2c1ncn2[C@@H]1O[C@H](COP(=O)(O)OP(=O)(O)O)[C@@H](O)[C@H]1O [ADP] |  |  |  |  |  | 
 |  |  |  |  |  |  |  |  | Cc1cc(-c2ccc(/C=C3/SC(=Nc4ccc(Cl)c(C(=O)O)c4)NC3=O)o2)c([N+](=O)[O-])cc1C [PT-1] | not | activates | all three complexes were activated | did not promote glucose uptake | all three complexes were activated | all three complexes were activated
